# In patent US4476128A, “2-Substituted thiazolyl-piperazine compounds, process for preparation thereof and utilizations thereof _” (Mitsuitoatsu Chemicals, Inc., priority 1980, dated 1984):
# Structures can show the parent of a compound that is named as a salt.
# Legend:
# Sarcoma 180 [1] = assay: Test of Antitumor Effect to Sarcoma 180 by Oral Administration; format: in vivo, ICR female mice; details: for D: average diameter (mm) of tumor, 2 weeks / D: average diameter (mm) of tumor, 4 weeks / D: average diameter (mm) of tumor, 6 weeks / D: average diameter (mm) of tumor, 8 weeks / D: average diameter (mm) of tumor, 10 weeks: 100 mg/Kg oral once a day, 10 days; for N: number of living mice, 0 weeks / N: number of living mice, 2 weeks / N: number of living mice, 4 weeks / N: number of living mice, 6 weeks / N: number of living mice, 8 weeks / N: number of living mice, 10 weeks: group of 6
# Procedure: To the control group, a physiological saline was similarly administered. The dose of the compound was 100 mg per Kg of the body weight. The diameter D (mm) of the tumor was measured, and the average value and the number N of the living mice were determined to obtain results shown in Table 4.
# [2] = tested on: delayed hypersensitivity induced by picryl chloride; assay: Test of Reinforcement of Delayed Hypersensitivity (picryl chloride, mouse ear thickness); format: in vivo, ICR male mice; details: 50 mg/Kg oral, simultaneously with sensitization; 24 hours after challenge; * P<0.05, ** P<0.01
# Description: Various test systems using animals have been proposed for determining the immunopotentiative action. Results of the test of reinforcement of the delayed hypersensitivity, which is a typical test among these tests, will now be described.
# This system was used for the test of reinforcement of the delayed hypersensitivity.
# One group of eight ICR male mice, each having a body weight of about 30 g, was used for the test.
# Sensitization was effected by coating a 7% solution of picryl chloride in a 4/1 mixture of olive oil and acetone on the shaved abdomen of the mouse.
# Simultaneously with sensitization, a solution or suspension of the compound of the present invention in a 0.2% solution of carboxymethyl cellulose in a physiological saline was orally administered to the mouse at a dose of 50 mg per Kg of the body weight. To the control group, a 0.2% carboxymethyl cellulose solution in a physiological saline was similarly administered.
# The delayed hypersensitivity was challenged 7 days after sensitization by gripping the ear of the mouse by a forceps wrapped with a felt impregnated with a 1% solution of picryl chloride in olive oil and coating the ear with the solution. The thickness of the ear was measured before challenging and 24 hours after challenging and the ratio of increase of the thickness (average value of both the ears in eight mice±standard deviation) was obtained as shown in Table 1.
# For comparison, the test was similarly carried out by using Levamisole hydrochloride, and the obtained results are shown in Table 1. F.t tests were carried out. The group in which the test result was significant at a level of P<0.05 was marked by *, and the group in which the test result was significant at a level of P<0.01 was marked by **.
# Sarcoma 180 [3] = assay: Test of Antitumor Effect to Sarcoma 180 by Subcutaneous Administration; format: in vivo, ICR female mice; details: 20 mg/Kg subcutaneous; for N: number of living mice, 0 weeks / N: number of living mice, 2 weeks / N: number of living mice, 4 weeks / N: number of living mice, 6 weeks / N: number of living mice, 8 weeks / N: number of living mice, 10 weeks: group of 6
# Procedure: To the control group, a physiological saline was similarly administered. […] The diameter D (mm) of the tumor was measured, and the average value and the number N of the living mice were determined to obtain results shown in Table 4.
# [4] = tested on: adjuvant arthritis caused by Mycobacterium tuberculosis adjuvant; assay: Adjuvant Arthritis Test; format: in vivo, SD male rats; details: 5 mg/Kg subcutaneous, 9 times, left hind leg, * P<0.05, ** P<0.01
# Procedure: The adjuvant arthritis in rats caused by injection of a Mycobacterium tuberculosis adjuvant is often utilized for a model test of chronic rheumatoid arthritis in men.
# The mechanism of manifestation of this disease has not completely been elucidated, but it is known that the cellular immunity takes an important role. The immunopotentiative action of the compound of the present invention was tested according to this known adjuvant arthritis test.
# A group of ten 9-weeks-old SD male rats were used for the test. In 0.1 ml of fluid paraffin, 0.4 mg of dry dead cells of Mycobacterium tuberculosis were suspended, and the suspension was injected under the heel skin of the right hind leg. The compound of the present invention was subcutaneously administered 9 times as a whole before and after injection of the adjuvant. The test compound was dissolved in a physiological saline and administered at a dose of 5 mg per Kg of the body weight. The swelling volume of the left hind leg as measured during the period of from the day of injection to the day of completion of the test, and the swelling ratio was calculated. For comparison, the test was similarly conducted by using Levamisole hydrochloride. F.t tests were carried out on the obtained test results. The group in which the test result was significant at a level of P<0.05 was marked by *, and the group in which the test result was significant at a level of P<0.01 was marked by **.
# EL-4 leukemic cells = assay: In-Vitro Test of Inhibition of Growth of Cancer Cell by Macrophage (3H-thymidine take-in); format: cell-based, C57 BL/6J mouse (EL-4 cells); ddY female mice (macrophages); details: 8 mg/Kg intraperitoneal; for Take-in Ratio (average value, %): macrophages collected after 4 days, 3H-thymidine incorporated into EL-4 cells; for inhibition of take-in of 3H-thymidine by EL-4 cells / macrophage activation (in words): hydrochloride
# Procedure: The results of the test of the action of the effective ingredient of the present invention on the macrophage will now be described with reference to the following Test 3. More specifically, the separated macrophage and EL-4 leukemic cell were mixed and cultured, and ^3 H-thymidine was added to a culture medium and the quantity of ^3 H-thymidine incorporated into the EL-4 cell was determined to examine the activity of the macrophage. When the macrophage is activated by administration of the effective ingredient of the present invention, inhibition of the growth of EL-4 cell, that is, phagocytosis of the cancer cell by the macrophage, is observed. Accordingly, if the take-in amount of ^3 H-thymidine is measured and this amount is reduced, it is confirmed that the macrophage has been activated. Test Procedures: […] The dose was 8 mg per Kg of the body weight. To the control group, a physiological saline was similarly administered. After passage of 4 days, exuded abdominal cells were collected and deposited on a plastic Petri dish to collect macrophages. […] Then, 0.1 μCi of ^3 H-thymidine was added and culturing was further conducted for 16 hours. Cells were collected on a filter paper from the culture medium and the amount of ^3 H-thymidine incorporated in was determined by a liquid scintillation counter.
# [5] = Test of Acute Toxicity by Oral Administration; format: in vivo, ddY male mice; details: mice, after 7 days
# Procedure: A solution or suspension of the compound in a physiological saline was orally administered to one group of three ddY male mice, and after 7 days, the estimated LD50 value was determined.
compound,measurement,setting,value
CCN(CC)C(=O)N1CCN(c2nccs2)CC1 [drawing 15],"D: average diameter (mm) of tumor, 2 weeks",Sarcoma 180 [1],8.6 mm
same,"D: average diameter (mm) of tumor, 4 weeks",Sarcoma 180 [1],7.5 mm
same,"D: average diameter (mm) of tumor, 6 weeks",Sarcoma 180 [1],6.7 mm
same,"D: average diameter (mm) of tumor, 8 weeks",Sarcoma 180 [1],7.7 mm
same,"D: average diameter (mm) of tumor, 10 weeks",Sarcoma 180 [1],0 mm
same,"N: number of living mice, 0 weeks",Sarcoma 180 [1]; 100 mg/Kg oral,6
same,"N: number of living mice, 2 weeks",Sarcoma 180 [1]; 100 mg/Kg oral,6
same,"N: number of living mice, 4 weeks",Sarcoma 180 [1]; 100 mg/Kg oral,6
same,"N: number of living mice, 6 weeks",Sarcoma 180 [1]; 100 mg/Kg oral,6
same,"N: number of living mice, 8 weeks",Sarcoma 180 [1]; 100 mg/Kg oral,6
same,"N: number of living mice, 10 weeks",Sarcoma 180 [1]; 100 mg/Kg oral,6
CCN(CC)C(=O)N1CCN(c2nc(-c3ccccc3)cs2)CC1 [drawing 8],"Ratio of Increase of Ear Thickness (average value ± standard variation, %)",[2],37.5 ± 2.1%
CCN(CC)C(=O)N1CCN(c2nccs2)CC1 [drawing 17],"N: number of living mice, 0 weeks",Sarcoma 180 [3],6
same,"D: average diameter (mm) of tumor, 2 weeks",Sarcoma 180 [3],4.9 mm
same,"N: number of living mice, 2 weeks",Sarcoma 180 [3],6
same,"D: average diameter (mm) of tumor, 4 weeks",Sarcoma 180 [3],6.7 mm
same,"N: number of living mice, 4 weeks",Sarcoma 180 [3],6
same,"D: average diameter (mm) of tumor, 6 weeks",Sarcoma 180 [3],9.6 mm
same,"N: number of living mice, 6 weeks",Sarcoma 180 [3],6
same,"D: average diameter (mm) of tumor, 8 weeks",Sarcoma 180 [3],5.6 mm
same,"N: number of living mice, 8 weeks",Sarcoma 180 [3],6
same,"D: average diameter (mm) of tumor, 10 weeks",Sarcoma 180 [3],0 mm
same,"N: number of living mice, 10 weeks",Sarcoma 180 [3],6
CCN(CC)C(=O)N1CCN(c2nc(-c3ccccc3)cs2)CC1 [drawing 14],"D: average diameter (mm) of tumor, 2 weeks",Sarcoma 180 [1],5.6 mm
same,"D: average diameter (mm) of tumor, 4 weeks",Sarcoma 180 [1],3.5 mm
same,"D: average diameter (mm) of tumor, 6 weeks",Sarcoma 180 [1],4.6 mm
same,"D: average diameter (mm) of tumor, 8 weeks",Sarcoma 180 [1],0 mm
same,"D: average diameter (mm) of tumor, 10 weeks",Sarcoma 180 [1],0 mm
same,"N: number of living mice, 0 weeks",Sarcoma 180 [1]; 100 mg/Kg oral,6
same,"N: number of living mice, 2 weeks",Sarcoma 180 [1]; 100 mg/Kg oral,6
same,"N: number of living mice, 4 weeks",Sarcoma 180 [1]; 100 mg/Kg oral,6
same,"N: number of living mice, 6 weeks",Sarcoma 180 [1]; 100 mg/Kg oral,6
same,"N: number of living mice, 8 weeks",Sarcoma 180 [1]; 100 mg/Kg oral,6
same,"N: number of living mice, 10 weeks",Sarcoma 180 [1]; 100 mg/Kg oral,6
CCN(CC)C(=O)N1CCN(c2nc(-c3ccccc3)cs2)CC1 [drawing 10],"Swelling Ratio (average value ± standard variation, %), 15 days",[4],43.5 ± 13.9%
same,"Swelling Ratio (average value ± standard variation, %), 18 days",[4],41.5 ± 12.6%
same,"Swelling Ratio (average value ± standard variation, %), 21 days",[4],52.9 ± 11.2%
CCN(CC)C(=O)N1CCN(c2nc(-c3ccccc3)cs2)CC1 [drawing 16],"N: number of living mice, 0 weeks",Sarcoma 180 [3],6
same,"D: average diameter (mm) of tumor, 2 weeks",Sarcoma 180 [3],2.6 mm
same,"N: number of living mice, 2 weeks",Sarcoma 180 [3],6
same,"D: average diameter (mm) of tumor, 4 weeks",Sarcoma 180 [3],3.5 mm
same,"N: number of living mice, 4 weeks",Sarcoma 180 [3],6
same,"D: average diameter (mm) of tumor, 6 weeks",Sarcoma 180 [3],6.5 mm
same,"N: number of living mice, 6 weeks",Sarcoma 180 [3],6
same,"D: average diameter (mm) of tumor, 8 weeks",Sarcoma 180 [3],0.6 mm
same,"N: number of living mice, 8 weeks",Sarcoma 180 [3],6
same,"D: average diameter (mm) of tumor, 10 weeks",Sarcoma 180 [3],0 mm
same,"N: number of living mice, 10 weeks",Sarcoma 180 [3],6
CCN(CC)C(=O)N1CCN(c2nccs2)CC1 [drawing 11],"Swelling Ratio (average value ± standard variation, %), 15 days",[4],60.9 ± 8.0%
same,"Swelling Ratio (average value ± standard variation, %), 18 days",[4],59.8 ± 7.8%
same,"Swelling Ratio (average value ± standard variation, %), 21 days",[4],50.5 ± 10.0%
CCN(CC)C(=O)N1CCN(c2nccs2)CC1 [drawing 13],"Take-in Ratio (average value, %)",EL-4 leukemic cells,25.8%
CCN(CC)C(=O)N1CCN(c2nc(-c3ccccc3)cs2)CC1 [drawing 12],"Take-in Ratio (average value, %)",EL-4 leukemic cells,21.0%
"c1ccc([C@H]2CN3CCSC3=N2)cc1 [Levamisole hydrochloride, reference compound]","Take-in Ratio (average value, %)",EL-4 leukemic cells,53.3%
same,inhibition of take-in of 3H-thymidine by EL-4 cells / macrophage activation (in words),EL-4 leukemic cells,does not exhibit such action
same,inhibition of take-in of 3H-thymidine by EL-4 cells / macrophage activation (in words),EL-4 leukemic cells; listed as Levamisole,hardly exhibits such action
same,estimated LD50 value,[5],150 to 200 mg/kg
same,"Ratio of Increase of Ear Thickness (average value ± standard variation, %)",[2],33.9 ± 3.0%
same,antitumor activity (in words),Sarcoma 180 [3],no substantial antitumor activity
same,"N: number of living mice, 0 weeks",Sarcoma 180 [3],6
same,"D: average diameter (mm) of tumor, 2 weeks",Sarcoma 180 [3],3.6 mm
same,"N: number of living mice, 2 weeks",Sarcoma 180 [3],6
same,"D: average diameter (mm) of tumor, 4 weeks",Sarcoma 180 [3],14.1 mm
same,"N: number of living mice, 4 weeks",Sarcoma 180 [3],6
same,"D: average diameter (mm) of tumor, 6 weeks",Sarcoma 180 [3],22.2 mm
same,"N: number of living mice, 6 weeks",Sarcoma 180 [3],6
same,"D: average diameter (mm) of tumor, 8 weeks",Sarcoma 180 [3],26.8 mm
same,"N: number of living mice, 8 weeks",Sarcoma 180 [3],3
same,"D: average diameter (mm) of tumor, 10 weeks",Sarcoma 180 [3],23.8 mm
same,"N: number of living mice, 10 weeks",Sarcoma 180 [3],2
same,"Swelling Ratio (average value ± standard variation, %), 15 days",[4],54.6 ± 11.3%
same,"Swelling Ratio (average value ± standard variation, %), 18 days",[4],61.7 ± 9.8%
same,"Swelling Ratio (average value ± standard variation, %), 21 days",[4],73.3 ± 14.6%
same,"D: average diameter (mm) of tumor, 2 weeks",Sarcoma 180 [1],8.1 mm
same,"D: average diameter (mm) of tumor, 4 weeks",Sarcoma 180 [1],16.8 mm
same,"D: average diameter (mm) of tumor, 6 weeks",Sarcoma 180 [1],23.1 mm
same,"D: average diameter (mm) of tumor, 8 weeks",Sarcoma 180 [1],27.4 mm
same,"D: average diameter (mm) of tumor, 10 weeks",Sarcoma 180 [1],25.5 mm
same,antitumor action (in words),"Sarcoma 180 [1]; 100 mg/Kg oral, repeatedly",no substantial antitumor action was observed
same,"N: number of living mice, 0 weeks",Sarcoma 180 [1]; 100 mg/Kg oral,6
same,"N: number of living mice, 2 weeks",Sarcoma 180 [1]; 100 mg/Kg oral,6
same,"N: number of living mice, 4 weeks",Sarcoma 180 [1]; 100 mg/Kg oral,6
same,"N: number of living mice, 6 weeks",Sarcoma 180 [1]; 100 mg/Kg oral,6
same,"N: number of living mice, 8 weeks",Sarcoma 180 [1]; 100 mg/Kg oral,6
same,"N: number of living mice, 10 weeks",Sarcoma 180 [1]; 100 mg/Kg oral,5
CCN(CC)C(=O)N1CCN(c2nccs2)CC1 [drawing 9],"Ratio of Increase of Ear Thickness (average value ± standard variation, %)",[2],36.6 ± 3.0%
